Key:
[1] = Phase 1 multiple ascending dose study of grapiprant tablets: serum pharmacokinetics; assay type: in vivo, human; conditions: for Rac (Day 14/Day 1) / half-life / Cmax / AUC(0-t): mean; for increase of mean systemic exposure (AUC and Cmax) with dose: 14 days; for half-life / Cmax / AUC(0-t) / Tmax: human, oral, serum; for Tmax: median
Excerpt: Serum pharmacokinetic parameters can be computed using WinNonlin Version 3.2 (Pharsight®, Mountain View, Calif.) using standard non-compartmental methods. As used herein, the term “Cmax” refers to the maximum observed serum concentration of grapiprant estimated directly from concentration versus time data. As used herein, the term “Tmax” refers to the time of the first occurrence of Cmax. As used herein, the term “AUC(0-tlast)” refers to the area under the serum concentration vs. time curve from time 0 to Tlast (the time of the last quantifiable concentration estimated using the linear/log trapezoidal approximation). When data permitted, the terminal elimination rate constant (kel) was estimated using linear least-square regression analysis of the serum concentration-time data obtained during the terminal log-linear phase. As used herein, the term “AUC(0-inf)” refers to AUC(0-tlast) extrapolated to infinity, which is calculated as the sum of AUC(0-tlast) and Cest/kel, wherein Cest is the predicted plasma concentration obtained from the log linear regression analysis at the last quantifiable time point. As used herein, the term “t½” refers to terminal phase half-life calculated as ln(2)/kel. As used herein, the term “AUC(last-inf)” refers to the area under the serum concentration versus time curve from Tlast to infinity, which is estimated as Cpest/kel, wherein Cpest represented the estimated concentration at time Tlast based on the aforementioned regression analysis. As used herein, the term “AUCτ” refers to the area under the serum concentration versus time curve over the dosing interval. As used herein, the term “Rac” refers to the accumulation ratio of grapiprant in the serum, which is calculated as a measure of drug accumulation at steady state compared to Day 1. Rac for the 14 day oral administration described herein is calculated using the equation: Rac=(Day 14 AUCτ/Day 1 AUCτ). Rac for the 17 day oral administration described herein is calculated using the equation: Rac=(Day 17 AUCτ/Day 1 AUCτ). Day 17 is used as steady state in the elderly group of subjects, which is Day 14 of the multiple dosing period for these subjects.
As used herein, the terms “cohort 1”, “cohort 2”, and “cohort 3” refer to studies where grapiprant tablets are administered at dosage levels of 50 mg, 150 mg, and 300 mg, respectively, in healthy adult subjects with a 14 day oral administration regimen as follows: one dose in the morning in a fasting state on day 1; twice daily (BID, approximately every 12 hours) on days 2 through 13: one dose in a fasting state in the morning, and one dose in the evening on an empty stomach; and one dose in the morning in a fasting state on day 14.
As used herein, the term “cohort 5” and/or “cohort 6” refers to a study where grapiprant tablets are administered at a dosage level of 250 mg in elderly subjects with minor renal impairment with a 17 day oral administration regimen as follows: one dose in the morning in a fasting state on day 1; twice daily (BID, approximately every 12 hours) on days 4 through 16: one dose in a fasting state in the morning, and one dose in the evening on an empty stomach; and one dose in the morning in a fasting state on day 17.
Dosing and Duration: In Cohorts 1-3, study medication was administered once daily in the morning on Days 1 and 14, and twice daily (BID, approximately every 12 hours) on Days 2 through 13. In Cohorts 5 and 6, study medication was administered once daily in the morning on Day 1, BID on Days […] through 16, and once in the morning on Day 17. In all cohorts dosing was to be in the fasting state for the morning dose and on an “empty stomach” for the evening dose.
Pharmacokinetic Evaluations: Serial blood samples for serum PK evaluations of grapiprant began prior to dosing on Day 1 and continued until 48 hours following Day 14 dosing (Cohorts 1-3) or until 24 hours following Day 17 dosing (Cohorts 5 and 6). […]

[2] = Phase 1 crossover food effect study of 375 mg grapiprant tablets: safety; assay type: in vivo, human; conditions: for subjects with treatment-emergent adverse events / treatment-emergent adverse events: 12 subjects
Method: This study was a randomized, open-label, single dose, 2-period crossover design. Each subject participated in 2 study periods. In each study period, subjects received a dose of 375 mg administered as 3×125 mg tablets of grapiprant under fasted or fed conditions in a crossover manner according to a randomized dosing sequence. The fed condition consisted of a standardized high-fat meal. Following an initial screening period of no longer than 28 days, 12 eligible subjects were to be randomized to the 2 treatment sequences and 2 treatment period sessions as shown in Table 6-1.
All subjects were evaluated for safety, which was assessed by adverse events either spontaneously reported or elicited by non-leading questions from study staff, clinical observations, safety laboratory tests, vital signs, 12-lead ECGs, concomitant medication assessment, physical examination, and fecal occult blood tests.

[3] = 50 mg, 50 mg BID tablets, Day 1, healthy adults
[4] = 50 mg, 50 mg BID tablets, Day 14, healthy adults
[5] = 150 mg, 150 mg BID tablets, Day 1, healthy adults
[6] = 150 mg, 150 mg BID tablets, Day 14, healthy adults
[7] = 250 mg, 250 mg BID tablets, Day 1, elderly with mild renal impairment
[8] = 250 mg, 250 mg BID tablets, Day 17, elderly with mild renal impairment
[9] = 300 mg, 300 mg BID tablets, Day 1, healthy adults
[10] = 300 mg, 300 mg BID tablets, Day 14, healthy adults

With `CCc1nc2c(C)nc(C)cc2n1-c1ccc(CCNC(=O)NS(=O)(=O)c2ccc(C)cc2)cc1` [Grapiprant, N-((4-(2-ethyl-4,6-dimethyl-1H-imidazo[4,5-c]pyridin-1-yl)phenethyl)carbamoyl)-4-methylbenzenesulfonamide] the “Rac (Day 14/Day 1)” value ([1]; 50 mg BID tablets, Day 14 AUCT/Day 1 AUCT, healthy adults) was 1.13, the “Rac (Day 14/Day 1)” value ([1]; 150 mg BID tablets, Day 14 AUCT/Day 1 AUCT, healthy adults) was 1.20 and the “Rac (Day 14/Day 1)” value ([1]; 250 mg BID tablets, Day 17 AUCT/Day 1 AUCT, elderly with mild renal impairment) was 1.54. The “mean exposure compared with the 300 mg BID healthy adult group” value ([1]; 250 mg BID, elderly subjects with mild renal impairment) was “slightly greater”, the “Rac (Day 14/Day 1)” value ([1]; 300 mg BID tablets, Day 14 AUCT/Day 1 AUCT, healthy adults) was 1.33 and the “increase of mean systemic exposure (AUC and Cmax) with dose” value ([1]; between 50 and 150 mg BID, tablets, healthy adults) was “approximately dose proportional”. For the same compound, the “increase of mean exposures” value ([1]; dose increased 2-fold from 150 mg BID to 300 mg BID, healthy adults) was “approximately 3 fold”, the “increase of mean systemic exposure (AUC and Cmax) with dose” value ([1]; dose increased from 150 mg BID to 300 mg BID, healthy adults) was “greater than dose proportional increase” and the half-life ([1]; 50 mg BID tablets, Day 14, healthy adults) was 6.47 h. The half-life ([1]; 150 mg BID tablets, Day 14, healthy adults) was 9.71 h, the half-life ([1]; 250 mg BID tablets, Day 1, elderly with mild renal impairment) was 8.63 h and the half-life ([1]; 300 mg BID tablets, Day 14, healthy adults) was 8.76 h. For the same compound, the Cmax ([1]; 50 mg, 50 mg BID tablets, Day 1 (n = 9), healthy adults) was 578 ng/mL, the AUC(0-t) [1, 3] was 3150 ng·h/mL and the Tmax [1, 3] was 1.5 h. The Cmax ([1]; 50 mg, 50 mg BID tablets, Day 14 (n = 8), healthy adults) was 611 ng/mL, the AUC(0-t) [1, 4] was 3370 ng·h/mL and the Tmax [1, 4] was 1.25 h. The Cmax ([1]; 150 mg, 150 mg BID tablets, Day 1 (n = 9), healthy adults) was 2150 ng/mL, the AUC(0-t) [1, 5] was 8970 ng·h/mL and the Tmax [1, 5] was 1.5 h. For the same compound, the Cmax ([1]; 150 mg, 150 mg BID tablets, Day 14 (n = 9), healthy adults) was 2670 ng/mL, the AUC(0-t) [1, 6] was 10300 ng·h/mL and the Tmax [1, 6] was 1.5 h. The Cmax ([1]; 250 mg, 250 mg BID tablets, Day 1 (n = 15), elderly with mild renal impairment) was 10300 ng/mL, the AUC(0-t) [1, 7] was 30100 ng·h/mL and the Tmax [1, 7] was 1 h. The Cmax ([1]; 250 mg, 250 mg BID tablets, Day 17 (n = 14), elderly with mild renal impairment) was 12300 ng/mL, the AUC(0-t) [1, 8] was 40200 ng·h/mL and the Tmax [1, 8] was 1 h. It also gave a Cmax ([1]; 300 mg, 300 mg BID tablets, Day 1 (n = 9), healthy adults) of 8240 ng/mL, an AUC(0-t) [1, 9] of 24900 ng·h/mL and a Tmax [1, 9] of 1.5 h. It also gave a Cmax ([1]; 300 mg, 300 mg BID tablets, Day 14 (n = 9), healthy adults) of 10400 ng/mL, an AUC(0-t) [1, 10] of 32300 ng·h/mL and a Tmax [1, 10] of 1 h. The “subjects with treatment-emergent adverse events” value ([2]; 375 mg tablet-fasted treatment) was 5 subjects, the treatment-emergent adverse events ([2]; 375 mg tablet-fasted treatment) was 7 events and the “subjects with treatment-emergent adverse events” value ([2]; 375 mg tablet-fed treatment) was 4 subjects. The treatment-emergent adverse events ([2]; 375 mg tablet-fed treatment) was 5 events, the “intensity of adverse events” value ([2]; 375 mg, after both treatments) was “mild in intensity” and the QTc ([2]; 375 mg, fasted and fed) was “no subjects had maximum QTc increases from baseline of ≥30 msec”. For the same compound, the “clinical laboratory tests or vital sign measurements” value ([2]; 375 mg, fasted and fed) was “No subjects had clinically significant changes from baseline”, the “deaths, serious adverse events, withdrawals” value ([2]; 375 mg, fasted and fed) was “no deaths, serious adverse events, or withdrawals due to adverse events” and the tolerability ([2]; 375-mg dose of tablets, fasted and fed conditions, healthy adults) was “well-tolerated”.
